Results reported in publication PMC6120666 (The EMBO Journal, 2018).

Tests used:
Assay in all cases: Drug affinity chromatography with c-ponatinib and LC-MS/MS (ponatinib interactome)
Assay type in all cases: binding
[1] = target: T1, proteins of U2OS cell lysate (Homo sapiens, UniProt P52907)
T1 construct: Proteins enriched by c-ponatinib from U2OS cell lysate; endogenous in cells; host or cells: U2OS cell lysate
Experimental: (§1) Drug affinity chromatography
(§2) U2OS cells were grown until approximately 80% confluent before being pelleted and washed with PBS. Cell pellets were subsequently lysed in buffer A (50 mM Tris pH 7.5, 0.8% v/v NP-40, 5% v/v glycerol, 1.5 mM MgCl2, 100 mM NaCl, 25 mM NaF, 1 mM Na3VO4, 1 mM PMSF, 1mM DTT, 10 μg/mL TLCK, 1 μg/ml Leupeptin, 1 μg/ml Aprotinin, 1 μg/ml soy bean trypsin) and lysates prepared […]
(§3) concentration was determined and lysates stored at -80 °C.
(§4) Briefly, 100 μl of bead slurry (50% in isopropanol) were used for each pulldown experiment. Beads were washed with DMSO (3 × 500 μl), and resuspended in DMSO (50 μl), to which the amine (0.025 μmol) and triethylamine (0.75 μl) were added. The beads were incubated at room temperature for 16 h, and depletion of free amine from the supernatant was determined by LC-MS analysis. Ethanolamine (2.5 μl) was then added to block any unreacted NHS sites, and the beads incubated for a further 16 h. Derivatized beads were then washed with DMSO (3 × 500 μl), buffer A (3 × 1 ml), and incubated with cell lysates (2 mg of protein per pulldown, at 6 […]
(§5) Beads and treated lysates were incubated for 2 h at 4 °C before washing with buffer A (5 ml), Buffer B (50 mM HEPES pH 7.5, 100 mM NaCl, 500 μM EDTA, 2.5 ml), and eluted with formic acid (100 mM, 250 μl). Samples were neutralized with triethylammoniumbicarbonate (TEAB, 1M, 62.5 μl) and stored at -20 °C until preparation for proteomic analysis.
(§6) Samples were reduced with DTT (10 mM final concentration) for 30 min at room temperature, alkylated with iodoacetamide (55 mM final concentration) for 30 min at room temperature, diluted to 300 μl with TEAB, and incubated with trypsin (6 μl, 0.2 mg/ml) overnight at 37 °C. The digests were desalted using SEPAC lite columns (Waters), eluted with 69 % v/v MeCN, 0.1 % v/v FA in H2O (1 ml) and dried in vacuo. Dried peptides were stored at -20 °C before resuspension in 2 % v/v MeCN, 1 % v/v FA in H2O (20 μl) for LC-MS/MS analysis.
(§7) LC-MS/MS data acquisition
(§8) Mass spectrometry data was acquired at the Discovery Proteomics Facility (University of Oxford).
(§9) Digested samples were analyzed by nano-UPLC–MS/MS using a Dionex Ultimate 3000 nano UPLC with EASY spray column (75 μm × 500 mm, 2 μm particle size, Thermo Fisher Scientific) with a 60 min gradient of 0.1 % (v/v) formic acid in 5 % (v/v) DMSO to 0.1 % (v/v) formic acid with 35 % (v/v) acetonitrile in 5 % (v/v) DMSO at a flow rate of approximately 250 nl min−1 (600 bar per 40 °C column temperature). Mass spectrometry data was acquired either with an Orbitrap Q Exactive (Survey scans acquired at a resolution of 70,000 @ 200m/z and the 15 most abundant precursors were selected for HCD fragmentation), or an Orbitrap Q Exactive High Field (HF) instrument (survey scans were […]

[2] = target: T2, proteins of U2OS cell lysate (Homo sapiens, UniProt Q13347)
T2 construct: Proteins enriched by c-ponatinib from U2OS cell lysate; endogenous in cells; host or cells: U2OS cell lysate
Experimental: as §1, §2, §3, §4, §5, §6, §7, §8, §9

[3] = target: T3, proteins of U2OS cell lysate (Homo sapiens, UniProt P63244)
T3 construct: Proteins enriched by c-ponatinib from U2OS cell lysate; endogenous in cells; host or cells: U2OS cell lysate
Experimental: as §1, §2, §3, §4, §5, §6, §7, §8, §9

[4] = target: T4, proteins of U2OS cell lysate (Homo sapiens, UniProt Q13247)
T4 construct: Proteins enriched by c-ponatinib from U2OS cell lysate; endogenous in cells; host or cells: U2OS cell lysate
Experimental: as §1, §2, §3, §4, §5, §6, §7, §8, §9

[5] = target: T5, proteins of U2OS cell lysate (Homo sapiens, UniProt Q96P70)
T5 construct: Proteins enriched by c-ponatinib from U2OS cell lysate; endogenous in cells; host or cells: U2OS cell lysate
Experimental: as §1, §2, §3, §4, §5, §6, §7, §8, §9

[6] = target: T6, proteins of U2OS cell lysate (Homo sapiens, UniProt P30049)
T6 construct: Proteins enriched by c-ponatinib from U2OS cell lysate; endogenous in cells; host or cells: U2OS cell lysate
Experimental: as §1, §2, §3, §4, §5, §6, §7, §8, §9

[7] = target: T7, proteins of U2OS cell lysate (Homo sapiens, UniProt O00159)
T7 construct: Proteins enriched by c-ponatinib from U2OS cell lysate; endogenous in cells; host or cells: U2OS cell lysate
Experimental: as §1, §2, §3, §4, §5, §6, §7, §8, §9

[8] = target: T8, proteins of U2OS cell lysate (Homo sapiens, UniProt P13073)
T8 construct: Proteins enriched by c-ponatinib from U2OS cell lysate; endogenous in cells; host or cells: U2OS cell lysate
Experimental: as §1, §2, §3, §4, §5, §6, §7, §8, §9

[9] = target: T9, proteins of U2OS cell lysate (Homo sapiens, UniProt P60900)
T9 construct: Proteins enriched by c-ponatinib from U2OS cell lysate; endogenous in cells; host or cells: U2OS cell lysate
Experimental: as §1, §2, §3, §4, §5, §6, §7, §8, §9

[10] = target: T10, proteins of U2OS cell lysate (Homo sapiens, UniProt P39656)
T10 construct: Proteins enriched by c-ponatinib from U2OS cell lysate; endogenous in cells; host or cells: U2OS cell lysate
Experimental: as §1, §2, §3, §4, §5, §6, §7, §8, §9

[11] = target: T11, proteins of U2OS cell lysate (Homo sapiens, UniProt Q03252)
T11 construct: Proteins enriched by c-ponatinib from U2OS cell lysate; endogenous in cells; host or cells: U2OS cell lysate
Experimental: as §1, §2, §3, §4, §5, §6, §7, §8, §9

[12] = target: T12, proteins of U2OS cell lysate (Homo sapiens, UniProt P28072)
T12 construct: Proteins enriched by c-ponatinib from U2OS cell lysate; endogenous in cells; host or cells: U2OS cell lysate
Experimental: as §1, §2, §3, §4, §5, §6, §7, §8, §9

[13] = target: T13, proteins of U2OS cell lysate (Homo sapiens, UniProt Q16643)
T13 construct: Proteins enriched by c-ponatinib from U2OS cell lysate; endogenous in cells; host or cells: U2OS cell lysate
Experimental: as §1, §2, §3, §4, §5, §6, §7, §8, §9

[14] = target: T14, proteins of U2OS cell lysate (Homo sapiens, UniProt O15372)
T14 construct: Proteins enriched by c-ponatinib from U2OS cell lysate; endogenous in cells; host or cells: U2OS cell lysate
Experimental: as §1, §2, §3, §4, §5, §6, §7, §8, §9

[15] = target: T15, proteins of U2OS cell lysate (Homo sapiens, UniProt Q9UBN7)
T15 construct: Proteins enriched by c-ponatinib from U2OS cell lysate; endogenous in cells; host or cells: U2OS cell lysate
Experimental: as §1, §2, §3, §4, §5, §6, §7, §8, §9

[16] = target: T16, proteins of U2OS cell lysate (Homo sapiens, UniProt P04406)
T16 construct: Proteins enriched by c-ponatinib from U2OS cell lysate; endogenous in cells; host or cells: U2OS cell lysate
Experimental: as §1, §2, §3, §4, §5, §6, §7, §8, §9

[17] = target: T17, proteins of U2OS cell lysate (Homo sapiens, UniProt Q9NVA2)
T17 construct: Proteins enriched by c-ponatinib from U2OS cell lysate; endogenous in cells; host or cells: U2OS cell lysate
Experimental: as §1, §2, §3, §4, §5, §6, §7, §8, §9

[18] = target: T18, proteins of U2OS cell lysate (Homo sapiens, UniProt Q13435)
T18 construct: Proteins enriched by c-ponatinib from U2OS cell lysate; endogenous in cells; host or cells: U2OS cell lysate
Experimental: as §1, §2, §3, §4, §5, §6, §7, §8, §9

[19] = target: T19, proteins of U2OS cell lysate (Homo sapiens, UniProt P48643)
T19 construct: Proteins enriched by c-ponatinib from U2OS cell lysate; endogenous in cells; host or cells: U2OS cell lysate
Experimental: as §1, §2, §3, §4, §5, §6, §7, §8, §9

T9 sequence (P60900 whole entry): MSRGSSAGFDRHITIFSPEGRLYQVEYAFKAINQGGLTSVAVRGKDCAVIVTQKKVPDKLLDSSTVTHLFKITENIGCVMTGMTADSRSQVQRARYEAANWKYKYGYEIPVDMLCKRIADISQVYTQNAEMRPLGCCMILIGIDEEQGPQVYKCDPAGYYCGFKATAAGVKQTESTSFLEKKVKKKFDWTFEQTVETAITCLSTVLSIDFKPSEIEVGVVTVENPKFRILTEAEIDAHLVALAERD
T12 sequence (P28072 whole entry): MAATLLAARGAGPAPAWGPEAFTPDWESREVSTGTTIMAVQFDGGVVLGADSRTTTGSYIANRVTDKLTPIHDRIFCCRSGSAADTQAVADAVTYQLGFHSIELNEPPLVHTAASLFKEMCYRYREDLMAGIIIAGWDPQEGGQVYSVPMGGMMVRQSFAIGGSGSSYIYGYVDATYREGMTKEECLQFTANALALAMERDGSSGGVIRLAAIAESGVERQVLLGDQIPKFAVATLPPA
T11 sequence (Q03252 whole entry): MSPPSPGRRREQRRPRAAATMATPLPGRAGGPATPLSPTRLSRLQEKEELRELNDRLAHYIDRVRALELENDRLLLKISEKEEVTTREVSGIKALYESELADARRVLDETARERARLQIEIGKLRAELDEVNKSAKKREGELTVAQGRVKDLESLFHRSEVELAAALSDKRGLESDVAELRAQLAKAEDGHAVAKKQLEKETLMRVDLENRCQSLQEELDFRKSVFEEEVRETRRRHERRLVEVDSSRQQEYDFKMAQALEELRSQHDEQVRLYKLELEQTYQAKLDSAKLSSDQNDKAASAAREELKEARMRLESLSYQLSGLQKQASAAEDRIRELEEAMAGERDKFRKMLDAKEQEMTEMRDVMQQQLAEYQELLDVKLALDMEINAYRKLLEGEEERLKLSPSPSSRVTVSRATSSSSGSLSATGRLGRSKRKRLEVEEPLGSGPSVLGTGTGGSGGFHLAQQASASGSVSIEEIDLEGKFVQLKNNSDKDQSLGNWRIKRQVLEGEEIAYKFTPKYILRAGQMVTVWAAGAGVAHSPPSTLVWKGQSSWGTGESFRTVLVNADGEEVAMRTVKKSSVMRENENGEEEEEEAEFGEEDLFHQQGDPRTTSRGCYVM
T15 sequence (Q9UBN7 whole entry): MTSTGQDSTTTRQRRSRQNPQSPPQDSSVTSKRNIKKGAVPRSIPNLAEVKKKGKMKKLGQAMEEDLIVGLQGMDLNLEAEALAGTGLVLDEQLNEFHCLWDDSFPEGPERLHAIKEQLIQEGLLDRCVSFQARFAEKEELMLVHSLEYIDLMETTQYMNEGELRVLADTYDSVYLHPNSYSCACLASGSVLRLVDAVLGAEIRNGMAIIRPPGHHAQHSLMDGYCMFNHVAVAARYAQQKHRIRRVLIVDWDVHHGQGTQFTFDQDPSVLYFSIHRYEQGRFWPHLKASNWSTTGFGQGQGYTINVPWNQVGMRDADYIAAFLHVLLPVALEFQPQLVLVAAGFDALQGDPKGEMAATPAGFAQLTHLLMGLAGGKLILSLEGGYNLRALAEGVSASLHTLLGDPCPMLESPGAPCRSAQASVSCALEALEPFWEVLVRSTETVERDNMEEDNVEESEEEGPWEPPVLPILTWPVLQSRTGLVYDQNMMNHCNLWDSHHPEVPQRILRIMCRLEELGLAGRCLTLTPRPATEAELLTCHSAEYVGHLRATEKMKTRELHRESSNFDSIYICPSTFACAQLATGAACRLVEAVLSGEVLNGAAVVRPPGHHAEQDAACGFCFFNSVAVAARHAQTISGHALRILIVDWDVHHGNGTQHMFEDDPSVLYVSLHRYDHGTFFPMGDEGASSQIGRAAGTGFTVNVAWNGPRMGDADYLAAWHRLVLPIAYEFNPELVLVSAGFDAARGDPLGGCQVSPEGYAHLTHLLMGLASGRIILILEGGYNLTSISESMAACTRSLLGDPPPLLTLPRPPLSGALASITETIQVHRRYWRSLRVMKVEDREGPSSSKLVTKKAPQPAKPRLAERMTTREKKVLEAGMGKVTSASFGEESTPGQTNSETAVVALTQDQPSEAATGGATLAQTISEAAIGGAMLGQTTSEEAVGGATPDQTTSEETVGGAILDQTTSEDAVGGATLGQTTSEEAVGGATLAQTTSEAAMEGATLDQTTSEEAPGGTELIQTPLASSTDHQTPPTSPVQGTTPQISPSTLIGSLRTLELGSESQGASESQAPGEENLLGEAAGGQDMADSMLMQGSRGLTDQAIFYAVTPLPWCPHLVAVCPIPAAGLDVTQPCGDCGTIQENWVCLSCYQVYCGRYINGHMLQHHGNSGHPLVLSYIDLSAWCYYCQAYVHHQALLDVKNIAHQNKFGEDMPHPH
T14 sequence (O15372 whole entry): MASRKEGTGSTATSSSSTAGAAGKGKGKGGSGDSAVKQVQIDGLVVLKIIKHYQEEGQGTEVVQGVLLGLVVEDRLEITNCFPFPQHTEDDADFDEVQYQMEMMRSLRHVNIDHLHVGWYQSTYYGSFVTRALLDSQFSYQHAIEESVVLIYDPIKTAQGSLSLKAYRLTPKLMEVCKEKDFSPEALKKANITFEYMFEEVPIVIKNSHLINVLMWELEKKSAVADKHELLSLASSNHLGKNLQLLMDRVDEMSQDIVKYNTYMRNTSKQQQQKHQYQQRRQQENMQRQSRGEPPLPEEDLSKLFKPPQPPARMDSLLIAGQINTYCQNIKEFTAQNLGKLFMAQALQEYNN
T13 sequence (Q16643 whole entry): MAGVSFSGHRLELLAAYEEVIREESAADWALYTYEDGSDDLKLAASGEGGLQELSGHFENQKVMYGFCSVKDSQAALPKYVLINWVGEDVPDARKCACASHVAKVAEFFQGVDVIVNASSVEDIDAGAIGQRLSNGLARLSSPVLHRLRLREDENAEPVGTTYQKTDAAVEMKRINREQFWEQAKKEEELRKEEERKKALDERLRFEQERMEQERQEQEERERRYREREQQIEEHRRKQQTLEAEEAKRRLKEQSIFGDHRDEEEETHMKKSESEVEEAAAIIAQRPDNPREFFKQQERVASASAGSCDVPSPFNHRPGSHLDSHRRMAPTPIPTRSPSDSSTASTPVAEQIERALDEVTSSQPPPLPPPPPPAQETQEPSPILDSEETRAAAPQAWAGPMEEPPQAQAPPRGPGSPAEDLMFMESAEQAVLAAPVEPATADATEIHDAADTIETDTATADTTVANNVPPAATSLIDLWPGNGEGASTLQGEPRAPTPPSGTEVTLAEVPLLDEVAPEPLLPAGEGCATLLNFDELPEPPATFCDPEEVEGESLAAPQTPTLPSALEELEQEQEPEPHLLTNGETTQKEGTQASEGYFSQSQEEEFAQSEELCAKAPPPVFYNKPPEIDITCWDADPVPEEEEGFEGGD
T18 sequence (Q13435 whole entry): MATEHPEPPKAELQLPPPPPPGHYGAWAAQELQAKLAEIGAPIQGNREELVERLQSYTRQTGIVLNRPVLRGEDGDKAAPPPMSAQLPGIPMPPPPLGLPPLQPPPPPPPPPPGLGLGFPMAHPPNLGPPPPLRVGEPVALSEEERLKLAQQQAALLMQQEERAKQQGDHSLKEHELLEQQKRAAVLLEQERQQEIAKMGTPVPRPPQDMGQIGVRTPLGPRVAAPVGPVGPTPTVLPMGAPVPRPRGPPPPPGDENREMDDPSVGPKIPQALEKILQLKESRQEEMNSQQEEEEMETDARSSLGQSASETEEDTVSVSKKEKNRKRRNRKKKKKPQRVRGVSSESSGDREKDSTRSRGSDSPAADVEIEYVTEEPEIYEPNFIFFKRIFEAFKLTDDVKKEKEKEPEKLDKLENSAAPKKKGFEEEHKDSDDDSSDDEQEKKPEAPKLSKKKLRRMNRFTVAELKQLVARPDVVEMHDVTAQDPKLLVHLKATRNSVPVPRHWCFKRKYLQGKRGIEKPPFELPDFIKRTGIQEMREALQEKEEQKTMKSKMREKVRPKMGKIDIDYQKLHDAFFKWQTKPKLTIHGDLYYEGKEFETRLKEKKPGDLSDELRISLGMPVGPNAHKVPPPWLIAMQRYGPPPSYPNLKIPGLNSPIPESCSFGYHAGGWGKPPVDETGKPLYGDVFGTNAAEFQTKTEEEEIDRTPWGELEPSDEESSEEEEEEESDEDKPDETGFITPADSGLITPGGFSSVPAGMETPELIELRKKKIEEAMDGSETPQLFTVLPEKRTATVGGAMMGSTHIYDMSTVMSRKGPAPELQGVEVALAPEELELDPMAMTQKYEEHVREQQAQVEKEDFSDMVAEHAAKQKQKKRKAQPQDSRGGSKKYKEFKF
T10 sequence (P39656 43-456): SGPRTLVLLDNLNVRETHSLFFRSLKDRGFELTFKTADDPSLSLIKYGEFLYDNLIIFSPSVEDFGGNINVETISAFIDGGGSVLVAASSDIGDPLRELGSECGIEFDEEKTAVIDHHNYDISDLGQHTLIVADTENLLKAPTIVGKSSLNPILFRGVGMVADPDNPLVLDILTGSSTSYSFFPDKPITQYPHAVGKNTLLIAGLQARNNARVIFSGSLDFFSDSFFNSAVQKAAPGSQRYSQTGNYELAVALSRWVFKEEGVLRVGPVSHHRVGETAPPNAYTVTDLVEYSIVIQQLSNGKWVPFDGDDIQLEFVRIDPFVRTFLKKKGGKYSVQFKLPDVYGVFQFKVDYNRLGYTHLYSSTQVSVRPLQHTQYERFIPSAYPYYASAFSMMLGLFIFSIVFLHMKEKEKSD
T2 sequence (Q13347 whole entry): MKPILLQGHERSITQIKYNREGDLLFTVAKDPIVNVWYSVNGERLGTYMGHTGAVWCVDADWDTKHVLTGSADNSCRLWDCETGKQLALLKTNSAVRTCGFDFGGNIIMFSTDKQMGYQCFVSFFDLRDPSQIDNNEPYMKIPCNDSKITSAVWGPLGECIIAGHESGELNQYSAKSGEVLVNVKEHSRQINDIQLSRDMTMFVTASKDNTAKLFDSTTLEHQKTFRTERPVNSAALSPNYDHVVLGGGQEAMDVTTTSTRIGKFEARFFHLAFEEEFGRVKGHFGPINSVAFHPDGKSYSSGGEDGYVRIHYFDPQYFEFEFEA

Q: For `Cc1ccc(C(=O)Nc2ccc(CN3CCN(C)CC3)c(C(F)(F)F)c2)cc1C#Cc1cnc2cccnn12` [PON], which “Average LFQ PON_WT” value ([1]; CAPZA1, F-actin-capping protein subunit alpha-1) is on record?
A: 21.8548

Q: And the “Average LFQ PON_WT” value ([2]; EIF3I, Eukaryotic translation initiation factor 3 subunit I)?
A: 22.8398

Q: What about the “Average LFQ PON_WT” value ([3]; GNB2L1, Guanine nucleotide-binding protein subunit beta-2-like 1) of the same compound?
A: 22.5999

Q: And the “Average LFQ PON_WT” value ([4]; SRSF6, Serine/arginine-rich splicing factor 6)?
A: 21.8714

Q: What about the “Average LFQ PON_WT” value ([5]; IPO9, Importin-9) of the same compound?
A: 21.5093

Q: And the “Average LFQ PON_WT” value ([6]; ATP5D, ATP synthase subunit delta, mitochondrial)?
A: 23.0608

Q: And the “Average LFQ PON_WT” value ([7]; MYO1C, Unconventional myosin-Ic)?
A: 21.7408

Q: What about the “Average LFQ PON_WT” value ([8]; COX4I1, Cytochrome c oxidase subunit 4 isoform 1, mitochondrial) of the same compound?
A: 21.5292

Q: And the “Average LFQ PON_WT” value ([9]; PSMA6, Proteasome subunit alpha type-6)?
A: 22.244

Q: What about the “Average LFQ PON_WT” value ([10]; DDOST, Dolichyl-diphosphooligosaccharide--protein glycosyltransferase 48 kDa subunit) of the same compound?
A: 22.9075

Q: What about the “Average LFQ PON_WT” value ([11]; LMNB2, Lamin-B2) of the same compound?
A: 22.9109

Q: And the “Average LFQ PON_WT” value ([12]; PSMB6, Proteasome subunit beta type-6)?
A: 22.7359

Q: What about the “Average LFQ PON_WT” value ([13]; DBN1, Drebrin) of the same compound?
A: 22.4964

Q: And the “Average LFQ PON_WT” value ([14]; EIF3H;EIF3S3, Eukaryotic translation initiation factor 3 subunit H)?
A: 23.1902

Q: And the “Average LFQ PON_WT” value ([15]; HDAC6, Histone deacetylase 6)?
A: 22.8295

Q: And the “Average LFQ PON_WT” value ([16]; GAPDH, Glyceraldehyde-3-phosphate dehydrogenase)?
A: 22.9925

Q: And the “Average LFQ PON_WT” value ([17]; SEPT11, Septin-11)?
A: 21.5746

Q: And the “Average LFQ PON_WT” value ([18]; SF3B2, Splicing factor 3B subunit 2)?
A: 22.8369

Q: And the “Average LFQ PON_WT” value ([19]; CCT5, T-complex protein 1 subunit epsilon)?
A: 22.2687

Q: Which results are given for `Cc1ccc(C(=O)Nc2ccc(CN3CCN(CCCN)CC3)c(C(F)(F)F)c2)cc1C#Cc1cnc2cccnn12` [c-ponatinib, reference compound]?
A: Average LFQ intensity ([1]; captured protein CAPZA1, Rank 200): 21.8548; Average LFQ intensity ([2]; captured protein EIF3I, Rank 135): 22.8398; Average LFQ intensity ([3]; captured protein GNB2L1, Rank 153): 22.5999; Average LFQ intensity ([4]; captured protein SRSF6, Rank 196): 21.8714; Average LFQ intensity ([5]; captured protein IPO9, Rank 229): 21.5093; Average LFQ intensity ([6]; captured protein ATP5D, Rank 121): 23.0608; Average LFQ intensity ([7]; captured protein MYO1C, Rank 209): 21.7408; Average LFQ intensity ([8]; captured protein COX4I1, Rank 227): 21.5292; Average LFQ intensity ([9]; captured protein PSMA6, Rank 175): 22.244; Average LFQ intensity ([10]; captured protein DDOST, Rank 129): 22.9075; Average LFQ intensity ([11]; captured protein LMNB2, Rank 128): 22.9109; Average LFQ intensity ([12]; captured protein PSMB6, Rank 145): 22.7359; Average LFQ intensity ([13]; captured protein DBN1, Rank 158): 22.4964; Average LFQ intensity ([14]; captured protein EIF3H;EIF3S3, Rank 114): 23.1902; Average LFQ intensity ([15]; captured protein HDAC6, Rank 137): 22.8295; Average LFQ intensity ([16]; captured protein GAPDH, Rank 124): 22.9925; Average LFQ intensity ([17]; captured protein 2011-09-01 (Septin-11), Rank 222): 21.5746; Average LFQ intensity ([18]; captured protein SF3B2, Rank 136): 22.8369; Average LFQ intensity ([19]; captured protein CCT5, Rank 171): 22.2687
